Values quoted from earlier work in PMC12843750, “Integrated Biomimetic 2D-LC and Permeapad® Assay for Profiling the Transdermal Diffusion of Pharmaceutical Compounds” (Molecules, 2026).

Conditions: ref Drugbank

pKa: 9.46
Compound: CC(=O)Nc1ccc(O)cc1 [Paracetamol]
